Laboratory results from article PMC7699381, “Rare-Earth Metal Complexes of the Antibacterial Drug Oxolinic Acid: Synthesis, Characterization, DNA/Protein Binding and Cytotoxicity Studies” (Molecules, 2020).

How the values were obtained:
[1] = system: HUVEC (normal human umbilical vein endothelial cells); test: MTS cytotoxicity assay, HUVEC normal cells; assay type: cell-based; conditions: 48 h of incubation
Procedure: (§1) For the evaluation of the cytotoxic effects of the complexes and ligand two human cancer cell lines were used, namely MDA-MB 231 (human breast adenocarcinoma) and LoVo (human colon adenocarcinoma); a normal cell line, human umbilical vein endothelial cells (HUVEC), was used as a reference. […] After 24 h and 48 h, respectively, cell viability was evaluated through MTS assay (data shown in Figures S16–S18) and the IC50 values were calculated (Table 5). The cytotoxicity assay is based on the ability of metabolically active cells to reduce MTS, a yellow tetrazolium salt, to the colored formazan, soluble in the culture medium; the concentration of formazan can be spectrophotometrically determined. […] PES is a cationic dye with high chemical stability that binds to MTS and forms a stable solution. […] The reduced MTS to formazan was spectrophotometrically measured at λ = 492 nm. The test was run on two cancer cell lines, LoVo and MDA-MB 231, and on a normal cell line, HUVEC. […] Cell viability data were obtained in triplicate (n = 3) and expressed as mean values ± standard deviations (SD). […] All assays were performed in 96-well microtiter plates with flat bottom (Falcon), using CellTiter 96 Aqueous One Solution Cell Proliferation Assay (Promega), an MTS-based colorimetric assay. The formazan was spectrophotometrically measured using the Tecan GENios Spectrophotometer.

[2] = target: T1, Apo-transferrin (apo-Tf) (Homo sapiens, UniProt P02787); test: Fluorescence quenching of apo-transferrin; assay type: binding; conditions: 298 K; for Ksv (Stern-Volmer constant), apo-Tf: 1 µM apo-Tf, 0–8 µM compound, pH 7.4; for Kq (bimolecular quenching constant), apo-Tf: from KSV = Kq τ0; for fa (fraction of fluorophore accessible to the quencher), apo-Tf: modified Stern-Volmer; for Kd: read-out: Kd, apo-Tf
T1 construct: purchased Sigma Aldrich Chemical Co. (Schnelldorf, Germany)

[3] = system: EB-DNA system (CT-DNA); test: Competitive binding assay with ethidium bromide (EB) through fluorescence spectroscopy; parameters: species or system calf; conditions: 10 µM CT-DNA, 2 µM EB; for Ksv (Stern-Volmer quenching constant, EB-DNA system): 0–40 µM compound, λex 500 nm; for K50 (EB Displacement Assay): concentration corresponding to 50% binding
From the text: The manner of binding to the DNA macromolecule can be investigated through competitive binding studies with ethidium bromide (3,8-diamino-5-ethyl-6-phenylphenanthridinium bromide), a fluorescent dye; due to its aromatic ring, it can intercalate between two adjacent base pairs in the DNA structure and form a complex which emits fluorescent light; displacing EB results in a quenching effect. The Stern-Volmer constant (KSV) and the dissociation constant (K50) have been calculated from the resulting data.
Competitive binding studies were carried out on a Jasco FP 6500 fluorometer at room temperature, using quartz cells of 1 cm path-length. The fluorescence spectra were recorded on 1.6 mL samples containing 10 µM CT-DNA and 2 µM EB in the absence and presence of increasing amounts (0–40 µM with an increment of 5 µM) of complexes and free ligands, respectively, after being kept in contact for 10 min at room temperature, under continuous stirring and in the dark. The excitation wavelength used was 500 nm and the spectra was recorded in the 520–800 nm range. Two control samples were used, the first one containing DMSO, DNA and EB and the second one just the complex.
Data from the assay can be interpreted using the classical Stern-Volmer equation (Equation (3)):(3) F0/F=1+ KSV·[Q] where F0 and F are the fluorescence intensities of the EB-DNA samples in the absence and presence of the tested compounds and [Q] is the concentration of the compound; KSV is the Stern-Volmer constant and can be calculated from the plot of F0/F vs. [Q] as the slope.
The ratio of binding relative to the control sample exposed only to DMSO was plotted against the logarithm of concentration. The data points were fitted using the modified Hill function with offset (Origin®) (Equation (4)):(4) y=A1+(A2−A1)×x^n/K50^n+x^n where y is the ratio of binding (F/F0) and x is the concentration, A1 is the minimum of y values, A2 is the maximum of y values, K50 is the concentration corresponding to 50% binding and n is the Hill coefficient.

[4] = target: T2, Human serum albumin (HSA) (Homo sapiens, UniProt P02768); test: Fluorescence quenching of human serum albumin; conditions: 298 K; for Ksv (Stern-Volmer constant), HSA: 2.5 µM HSA, 0–8 µM compound, pH 7.4; for Kq (bimolecular quenching constant), HSA: from KSV = Kq τ0; for fa (fraction of fluorophore accessible to the quencher), HSA: modified Stern-Volmer
[5] = target: T2, Human serum albumin (HSA)
[6] = system: MDA-MB 231 (human breast adenocarcinoma); test: MTS cytotoxicity assay, MDA-MB 231 cells; assay type: cell-based; conditions: 48 h of incubation
Procedure: as §1

[7] = system: LoVo (human colon adenocarcinoma); test: MTS cytotoxicity assay, LoVo cells; assay type: cell-based; conditions: 48 h of incubation
Procedure: as §1

[8] = system: CT-DNA (double-stranded calf-thymus DNA); test: DNA binding by UV-Vis spectra (titration with CT-DNA); conditions: 20 µM compound, 0–40 µM DNA, Tris-HCl pH 7.4, room temperature

T2 sequence (P02768 25-609): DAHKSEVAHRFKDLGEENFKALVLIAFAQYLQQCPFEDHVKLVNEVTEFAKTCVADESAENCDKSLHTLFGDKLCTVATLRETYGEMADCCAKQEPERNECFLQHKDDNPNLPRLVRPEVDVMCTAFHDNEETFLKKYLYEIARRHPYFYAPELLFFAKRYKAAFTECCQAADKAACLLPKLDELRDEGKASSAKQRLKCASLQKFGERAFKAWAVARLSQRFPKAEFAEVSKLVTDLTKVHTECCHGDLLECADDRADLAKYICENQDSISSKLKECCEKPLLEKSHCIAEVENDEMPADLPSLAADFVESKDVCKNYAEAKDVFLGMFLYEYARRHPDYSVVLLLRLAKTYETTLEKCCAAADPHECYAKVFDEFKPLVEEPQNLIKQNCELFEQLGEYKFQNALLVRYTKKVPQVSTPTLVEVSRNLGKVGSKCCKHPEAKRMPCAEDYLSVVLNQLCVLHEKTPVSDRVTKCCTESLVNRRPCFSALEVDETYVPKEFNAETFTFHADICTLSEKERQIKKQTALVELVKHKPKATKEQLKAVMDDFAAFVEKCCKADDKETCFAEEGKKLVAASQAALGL
T1 sequence (P02787 20-698): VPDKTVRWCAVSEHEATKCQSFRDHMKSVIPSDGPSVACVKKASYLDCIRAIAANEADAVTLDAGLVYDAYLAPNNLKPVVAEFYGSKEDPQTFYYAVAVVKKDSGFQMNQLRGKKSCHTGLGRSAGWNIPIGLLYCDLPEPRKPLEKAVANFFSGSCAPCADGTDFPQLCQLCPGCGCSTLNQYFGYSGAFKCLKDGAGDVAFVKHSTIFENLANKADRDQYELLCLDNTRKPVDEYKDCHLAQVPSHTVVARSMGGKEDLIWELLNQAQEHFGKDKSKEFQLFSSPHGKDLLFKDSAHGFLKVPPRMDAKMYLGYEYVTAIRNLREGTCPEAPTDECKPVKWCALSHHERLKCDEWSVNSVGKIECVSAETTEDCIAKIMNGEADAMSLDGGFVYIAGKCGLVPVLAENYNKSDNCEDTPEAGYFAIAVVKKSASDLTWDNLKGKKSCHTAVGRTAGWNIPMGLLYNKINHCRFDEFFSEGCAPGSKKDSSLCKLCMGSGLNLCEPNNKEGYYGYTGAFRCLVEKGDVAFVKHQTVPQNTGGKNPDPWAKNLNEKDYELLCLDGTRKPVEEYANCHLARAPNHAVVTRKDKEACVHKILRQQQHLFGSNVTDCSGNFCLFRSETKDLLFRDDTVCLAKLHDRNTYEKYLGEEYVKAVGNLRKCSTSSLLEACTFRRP

Compound | IC50 [1] [µM] | Ka (association binding constant), apo-Tf [2] | n (Hill Coefficient), apo-Tf [2] | n (Number of Binding Sites), apo-Tf [2] | Ksv (Stern-Volmer constant), apo-Tf [2] | Kq (bimolecular quenching constant), apo-Tf [2] [M⁻¹ s⁻¹] | fa (fraction of fluorophore accessible to the quencher), apo-Tf [2] | Kd [2] [µM] | Ksv (Stern-Volmer quenching constant, EB-DNA system) [3] | K50 (EB Displacement Assay) [3] [µM] | Ka (association binding constant), HSA [4] | n (Hill Coefficient), HSA [4] | n (Number of Binding Sites), HSA [4] | Ksv (Stern-Volmer constant), HSA [4] | Kq (bimolecular quenching constant), HSA [4] [M⁻¹ s⁻¹] | fa (fraction of fluorophore accessible to the quencher), HSA [4] | Kd [5] [µM] | IC50 [6] [µM] | IC50 [7] [µM] | Kb (DNA binding constant) [8] | also measured
CCn1cc(C(=O)[O][La]([OH])[O]C(=O)c2cn(CC)c3cc4c(cc3c2=O)OCO4)c(=O)c2cc3c(cc21)OCO3.O [La oxo, [La(oxo)(OH)(H2O)]] | > 200 | (0.53 ± 0.23) × 10^4 M^−1 | 1.71 ± 0.21 | 0.77 ± 0.03 | (14.13 ± 1.46) × 10^4 M^−1 | 1.413e+13 | 0.68 ± 0.03 | 8.89 ± 2.11 | 1.27 (±0.03) × 10^4 | 37.05 ± 8.86 | (5.80 ± 2.01) × 10^5 M^−1 | 1.74 ± 0.21 | 1.14 ± 0.02 | (6.82 ± 0.74) × 10^4 M^−1 | 6.82e+12 | 1.26 ± 0.11 | 6.22 ± 1.05 | > 100 | 52.1 ± 5.54 | 2.57 (± 0.17) × 10^5 L∙mol^−1 | Ksv (Stern-Volmer quenching constant, EB-DNA system) ([3]; listed as La-oxo): (1.27 ± 0.03) × 10^4
CCn1cc(C(=O)[O][Sm]([OH])[O]C(=O)c2cn(CC)c3cc4c(cc3c2=O)OCO4)c(=O)c2cc3c(cc21)OCO3.O.O [Sm oxo, [Sm(oxo)(OH)(H2O)] · H2O] | > 200 | (4.16 ± 1.09) × 10^4 M^−1 | 2.03 ± 0.32 | 0.95 ± 0.02 | (9.34 ± 0.66) × 10^4 M^−1 | 9.34e+12 | 0.85 ± 0.05 | 5.73 ± 0.55 | (1.21 ± 0.03) × 10^4 | 41.55 ± 19.32 | (4.28 ± 2.12) × 10^5 M^−1 | 1.55 ± 0.37 | 1.11 ± 0.04 | (6.56 ± 0.90) × 10^4 M^−1 | 6.56e+12 | 1.44 ± 0.15 | 4.69 ± 0.87 | 40.4 ± 6.27 | 41.5 ± 15.3 | 9.33 (± 1.46) × 10^4 L∙mol^−1 | –
